Molecular target: T1, human TRPM8 (Homo sapiens, UniProt Q7Z2W7)
T1 construct: expressed in transfected cells
Assay: In Vitro human TRPM8 Functional Assay (intracellular Ca2+, Fluo4, FDSS, menthol activation)
Format: cell-based
Conditions: HEK293 cells stably expressing human TRPM8; activation with L-(-)-Menthol; 11-point dose-response
Procedure, shortened: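 Fluo4-loaded HEK293 cells stably expressing TRPM8 were preincubated with compound for 5 min at room temperature, then stimulated with L-menthol (20 μl of 90 μM stock) while fluorescence was read. IC50 values come from 11-point curves fitted to the mean of duplicate wells.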

T1 sequence (Q7Z2W7 whole entry): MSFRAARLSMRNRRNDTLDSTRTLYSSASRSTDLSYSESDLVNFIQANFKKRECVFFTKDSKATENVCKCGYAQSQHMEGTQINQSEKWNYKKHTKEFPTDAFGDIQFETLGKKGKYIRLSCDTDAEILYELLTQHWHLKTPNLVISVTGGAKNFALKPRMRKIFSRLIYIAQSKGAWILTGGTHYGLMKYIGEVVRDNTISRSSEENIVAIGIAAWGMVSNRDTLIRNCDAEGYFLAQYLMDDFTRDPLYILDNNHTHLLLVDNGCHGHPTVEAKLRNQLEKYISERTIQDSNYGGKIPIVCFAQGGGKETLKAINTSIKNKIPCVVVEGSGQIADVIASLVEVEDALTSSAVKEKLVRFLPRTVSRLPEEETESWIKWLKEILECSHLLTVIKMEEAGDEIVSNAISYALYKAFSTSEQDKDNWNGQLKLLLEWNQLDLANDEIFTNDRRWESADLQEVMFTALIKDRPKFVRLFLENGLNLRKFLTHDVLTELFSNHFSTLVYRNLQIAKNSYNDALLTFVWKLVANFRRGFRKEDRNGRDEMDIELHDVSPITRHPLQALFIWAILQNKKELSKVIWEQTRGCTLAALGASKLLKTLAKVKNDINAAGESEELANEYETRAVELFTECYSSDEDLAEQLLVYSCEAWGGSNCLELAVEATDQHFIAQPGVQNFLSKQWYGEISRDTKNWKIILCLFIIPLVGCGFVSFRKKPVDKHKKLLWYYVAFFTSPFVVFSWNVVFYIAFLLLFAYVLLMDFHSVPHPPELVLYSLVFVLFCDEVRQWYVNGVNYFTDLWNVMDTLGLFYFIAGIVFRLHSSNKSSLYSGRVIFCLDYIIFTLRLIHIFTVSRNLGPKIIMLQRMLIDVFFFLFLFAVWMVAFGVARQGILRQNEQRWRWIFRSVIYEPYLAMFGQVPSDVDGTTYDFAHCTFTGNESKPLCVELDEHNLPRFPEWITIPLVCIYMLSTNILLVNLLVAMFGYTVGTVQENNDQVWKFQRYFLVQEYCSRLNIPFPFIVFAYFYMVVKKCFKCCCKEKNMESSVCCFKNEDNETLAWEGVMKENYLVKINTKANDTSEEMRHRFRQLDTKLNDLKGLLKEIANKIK

O=C(O)c1ccc(S(=O)(=O)N(Cc2ccc(C(F)(F)F)nc2)c2ncc(C(F)(F)F)cc2Cl)cc1 [Example 160, 4-(N-(3-Chloro-5-(trifluoromethyl)pyridin-2-yl)-N-((6-(trifluoromethyl)pyridin-3-yl)methyl)sulfamoyl)benzoic acid]
IC50: < 1 µM

O=C(O)c1ccc(S(=O)(=O)N(Cc2ccc(NC(=O)c3ccccn3)cc2)c2ncc(C(F)(F)F)cc2Cl)cc1 [Example 161, 4-(N-(3-Chloro-5-(trifluoromethyl)pyridin-2-yl)-N-(4-(picolinamido)benzyl)sulfamoyl)benzoic acid]
IC50: < 1 µM

COc1ccc(-c2ccc(CN(c3ncc(C(F)(F)F)cc3Cl)S(=O)(=O)c3ccc(C(=O)O)cc3)cc2)cn1 [Example 162, 4-(N-(3-chloro-5-(trifluoromethyl)pyridin-2-yl)-N-(4-(6-methoxypyridin-3-yl)-benzyl)sulfamoyl)benzoic acid]
IC50: < 1 µM

Cc1ccc(-c2ccc(CN(c3ncc(C(F)(F)F)cc3Cl)S(=O)(=O)c3ccc(C(=O)O)cc3)cc2)cn1 [Example 163, 4-(N-(3-chloro-5-(trifluoromethyl)pyridin-2-yl)-N-(4-(6-methylpyridin-3-yl)benzyl)sulfamoyl)benzoic acid]
IC50: < 1 µM

O=C(O)c1ccc(S(=O)(=O)N(Cc2cccc(-c3ccccc3)c2)c2ncc(C(F)(F)F)cc2Cl)cc1 [Example 164, 4-(N-[(1,1′-Biphenyl]-3-ylmethyl)-N-(3-chloro-5-(trifluoromethyl)pyridin-2-yl)sulfamoyl)benzoic acid]
IC50: < 1 µM

O=C(O)c1ccc(S(=O)(=O)N(Cc2ccccc2-c2ccccc2)c2ncc(C(F)(F)F)cc2Cl)cc1 [Example 165, 4-(N-([1,1′-Biphenyl]-2-ylmethyl)-N-(3-chloro-5-(trifluoromethyl)pyridin-2-yl)sulfamoyl)benzoic acid]
IC50: < 1 µM

C[C@H](c1ccccc1)N(c1ncc(C(F)(F)F)cc1Cl)S(=O)(=O)c1ccc(C(=O)O)cc1 [Example 166, (R)-4-(N-(3-Chloro-5-(trifluoromethyl)pyridin-2-yl)-N-(1-phenylethyl)sulfamoyl)benzoic acid]
IC50: < 1 µM

O=C(O)c1ccc(S(=O)(=O)N(Cc2cccs2)c2ncc(C(F)(F)F)cc2Cl)cc1 [Example 167, 4-(N-(3-Chloro-5-(trifluoromethyl)pyridin-2-yl)-N-(thiophen-2-ylmethyl)sulfamoyl)benzoic acid]
IC50: < 1 µM

O=C(O)c1ccc(S(=O)(=O)N(Cc2ccc(Oc3ccccc3)cc2)c2ncc(C(F)(F)F)cc2Cl)cc1 [Example 169, 4-(N-(3-Chloro-5-(trifluoromethyl)pyridin-2-yl)-N-(4-phenoxybenzyl)sulfamoyl)benzoic acid]
IC50: < 1 µM

O=C(O)c1ccc(S(=O)(=O)N(Cc2ccc(-n3cccn3)cc2)c2ncc(C(F)(F)F)cc2Cl)cc1 [Example 170, 4-(N-(4-(1H-Pyrazol-1-yl)benzyl)-N-(3-chloro-5-(trifluoromethyl)pyridin-2-yl)sulfamoyl)benzoic acid]
IC50: < 1 µM

O=C(O)c1ccc(S(=O)(=O)N(CC2CCC2)c2ncc(C(F)(F)F)cc2Cl)cc1 [Example 171, 4-(N-(3-Chloro-5-(trifluoromethyl)pyridin-2-yl)-N-(cyclobutylmethyl)sulfamoyl)benzoic acid]
IC50: < 1 µM

O=C(O)c1ccc(S(=O)(=O)N(Cc2ccsc2)c2ncc(C(F)(F)F)cc2Cl)cc1 [Example 172, 4-(N-(3-Chloro-5-(trifluoromethyl)pyridin-2-yl)-N-(thiophen-3-ylmethyl)sulfamoyl)benzoic acid]
IC50: < 1 µM

N#Cc1ccc(S(=O)(=O)N(Cc2ccccc2)c2ncc(C(F)(F)F)cc2Cl)cc1 [Example 173, N-Benzyl-N-(3-chloro-5-(trifluoromethyl)pyridin-2-yl)-4-cyanobenzenesulfonamide]
IC50: < 1 µM

O=S(=O)(c1ccc(-c2nn[nH]n2)cc1)N(Cc1ccccc1)c1ncc(C(F)(F)F)cc1Cl [Example 174, N-Benzyl-N-(3-chloro-5-(trifluoromethyl)pyridin-2-yl)-4-(2H-tetrazol-5-yl)benzenesulfonamide]
IC50: < 1 µM

COc1ccc(S(=O)(=O)N(Cc2ccccc2)c2ncc(C(F)(F)F)cc2Cl)cc1 [Example 175, N-Benzyl-N-(3-chloro-5-(trifluoromethyl)pyridin-2-yl)-4-methoxybenzenesulfonamide]
IC50: < 1 µM

CS(=O)(=O)NCc1ccc(S(=O)(=O)N(Cc2ccccc2)c2ncc(C(F)(F)F)cc2Cl)cc1 [Example 176, N-Benzyl-N-(3-chloro-5-(trifluoromethyl)pyridin-2-yl)-4-(methylsulfonamidomethyl)benzenesulfonamide]
IC50: < 1 µM

CC(=O)NCc1ccc(S(=O)(=O)N(Cc2ccccc2)c2ncc(C(F)(F)F)cc2Cl)cc1 [Example 177, N-(4-(N-Benzyl-N-(3-chloro-5-(trifluoromethyl)pyridin-2-yl)sulfamoyl)benzyl)acetamide]
IC50: < 1 µM

CN(C)S(=O)(=O)NCc1ccc(S(=O)(=O)N(Cc2ccccc2)c2ncc(C(F)(F)F)cc2Cl)cc1 [Example 178, N-Benzyl-N-(3-chloro-5-(trifluoromethyl)pyridin-2-yl)-4-(((N,N-dimethylsulfamoyl)amino)methyl)benzenesulfonamide]
IC50: < 1 µM

CN(C)C(=O)NCc1ccc(S(=O)(=O)N(Cc2ccccc2)c2ncc(C(F)(F)F)cc2Cl)cc1 [Example 179, N-Benzyl-N-(3-chloro-5-(trifluoromethyl)pyridin-2-yl)-4-((3,3-dimethylureido)methyl)benzene sulfonamide]
IC50: < 1 µM

O=C(O)c1ccc(S(=O)(=O)N(Cc2ccccc2)c2ncc(Br)cc2Cl)cc1 [Example 180, 4-(N-Benzyl-N-(5-bromo-3-chloropyridin-2-yl)sulfamoyl)benzoic acid]
IC50: < 1 µM

O=C(O)c1ccc(S(=O)(=O)N(Cc2ccccc2)c2ncc(C(F)(F)F)cc2Cl)c(Cl)c1 [Example 181, 4-(N-Benzyl-N-(3-chloro-5-(trifluoromethyl)pyridin-2-yl)sulfamoyl)-3-chlorobenzoic acid]
IC50: < 1 µM

O=C(O)c1ccc(S(=O)(=O)N(Cc2ccccc2)c2ncc(-c3ccco3)cc2Cl)cc1 [Example 183, 4-(N-Benzyl-N-(3-chloro-5-(furan-2-yl)pyridin-2-yl)sulfamoyl)benzoic acid]
IC50: < 1 µM

O=C(O)c1ccc(S(=O)(=O)N(Cc2ccccc2)c2ncc(-c3ccsc3)cc2Cl)cc1 [Example 184, 4-(N-Benzyl-N-(3-chloro-5-(thiophen-3-yl)pyridin-2-yl)sulfamoyl)benzoic acid]
IC50: < 1 µM

COc1ccccc1-c1cnc(N(Cc2ccccc2)S(=O)(=O)c2ccc(C(=O)O)cc2)c(Cl)c1 [Example 185, 4-(N-Benzyl-N-(3-chloro-5-(2-methoxyphenyl)pyridin-2-yl)sulfamoyl)benzoic acid]
IC50: < 1 µM

COc1ccc(-c2cnc(N(Cc3ccccc3)S(=O)(=O)c3ccc(C(=O)O)cc3)c(Cl)c2)cc1 [Example 186, 4-(N-Benzyl-N-(3-chloro-5-(4-methoxyphenyl)pyridin-2-yl)sulfamoyl)benzoic acid]
IC50: < 1 µM

COc1cccc(-c2cnc(N(Cc3ccccc3)S(=O)(=O)c3ccc(C(=O)O)cc3)c(Cl)c2)c1 [Example 187, 4-(N-Benzyl-N-(3-chloro-5-(3-methoxyphenyl)pyridin-2-yl)sulfamoyl)benzoic acid]
IC50: < 1 µM

O=C(O)c1ccc(S(=O)(=O)N(Cc2ccccc2)c2ncc(C(F)(F)F)cc2Cl)cc1Cl [Example 188, 4-(N-Benzyl-N-(3-chloro-5-(trifluoromethyl)pyridin-2-yl)sulfamoyl)-2-chlorobenzoic acid]
IC50: < 1 µM

COc1ccc(S(=O)(=O)N(Cc2ccccc2)c2ncc(C(F)(F)F)cc2Cl)cn1 [Example 189, N-Benzyl-N-(3-chloro-5-(trifluoromethyl)pyridin-2-yl)-6-methoxypyridine-3-sulfonamide]
IC50: < 1 µM

O=C(O)c1ccc(S(=O)(=O)N(Cc2ccccc2)c2ncc(C(F)(F)F)cc2Cl)c(F)c1 [Example 190, 4-(N-Benzyl-N-(3-chloro-5-(trifluoromethyl)pyridin-2-yl)sulfamoyl)-3-fluorobenzoic acid]
IC50: < 1 µM

O=C(O)c1ccc(S(=O)(=O)N(Cc2ccccc2)c2ncc(C(F)(F)F)cc2Cl)cc1F [Example 191, 4-(N-Benzyl-N-(3-chloro-5-(trifluoromethyl)pyridin-2-yl)sulfamoyl)-2-fluorobenzoic acid]
IC50: < 1 µM

O=C(O)c1ccc(S(=O)(=O)N(CC2CCCC2)c2ncc(C(F)(F)F)cc2Cl)cc1 [Example 192, 4-(N-(3-Chloro-5-(trifluoromethyl)pyridin-2-yl)-N-(cyclopentylmethyl)sulfamoyl)benzoic acid]
IC50: < 1 µM

O=C(O)c1ccc(S(=O)(=O)N(c2ncc(C(F)(F)F)cc2Cl)C2(c3ccccc3)CC2)cc1 [Example 193, 4-(N-(3-Chloro-5-(trifluoromethyl)pyridin-2-yl)-N-(1-phenylcyclopropyl)sulfamoyl)benzoic acid]
IC50: < 1 µM

CN(C)S(=O)(=O)Nc1ccc(S(=O)(=O)N(Cc2ccccc2)c2ncc(C(F)(F)F)cc2Cl)cc1 [Example 194, N-Benzyl-N-(3-chloro-5-(trifluoromethyl)pyridin-2-yl)-4-((N,N-dimethylsulfamoyl)amino)benzenesulfonamide]
IC50: < 1 µM

NC(=O)Nc1ccc(S(=O)(=O)N(Cc2ccccc2)c2ncc(C(F)(F)F)cc2Cl)cc1 [Example 195, N-Benzyl-N-(3-chloro-5-(trifluoromethyl)pyridin-2-yl)-4-ureidobenzenesulfonamide]
IC50: < 1 µM

NS(=O)(=O)Nc1ccc(S(=O)(=O)N(Cc2ccccc2)c2ncc(C(F)(F)F)cc2Cl)cc1 [Example 196, N-Benzyl-N-(3-chloro-5-(trifluoromethyl)pyridin-2-yl)-4-(sulfamoylamino)benzenesulfonamide]
IC50: < 1 µM

C[C@@H](c1ccccc1)N(c1ncc(C(F)(F)F)cc1Cl)S(=O)(=O)c1ccc(C(=O)O)cc1 [Example 197, (S)-4-(N-(3-Chloro-5-(trifluoromethyl)pyridin-2-yl)-N-(1-phenylethyl)sulfamoyl)benzoic acid]
IC50: < 1 µM

— patent US20120094964A1, “SULFAMOYL BENZOIC ACID DERIVATIVES AS TRPM8 ANTAGONISTS” (priority 2009, published 2012)
